Results on seven compounds are retold here after PMC10745968 (Molecules, 2023).

The test system of data set [1] is Pseudomonas aeruginosa. The class given is cell-based.
Data set [2] deals with Salmonella typhi. The class given is cell-based.
The test system of data set [3] is Bacillus subtilis. The class given is cell-based.
Data set [4] concerns Staphylococcus aureus. It counts as cell-based.
In data set [5] the test system is Bacillus cereus. The class given is cell-based.
Data set [6] has as its system Escherichia coli. It counts as cell-based.
Data set [7] concerns brine shrimp nauplii. Particulars: in vivo.
In data set [8] the test system is Aspergillus flavus. It counts as cell-based. As to conditions: 5 days.
Data set [9] has as its system Aspergillus niger. It counts as cell-based. Particulars: 5 days.

For `CC[C@H]1OC(=O)[C@H](C)[C@@H](O[C@H]2C[C@@](C)(OC)[C@@H](O)[C@H](C)O2)[C@H](C)[C@@H](O[C@@H]2O[C@H](C)C[C@H](N(C)C)[C@H]2O)[C@](C)(O)C[C@@H](C)CN(C)[C@H](C)[C@@H](O)[C@]1(C)O` [Azithromycin, reference compound], the “Diameter of Inhibition Zone” value in data set [1] was “** 18.5 ± 0.3 mm”; in data set [2], “** 18.0 ± 0.2 mm”; in data set [3], “** 18.5 ± 0.3 mm”; in data set [4] it was “** 17.75 ± 0.3 mm”; in [5], “** 17.22 ± 0.3 mm”; in data set [6], “** 17.25 ± 0.1 mm”.

Consider `CO[C@H]1O[C@H](COC(=O)C=Cc2ccccc2)[C@@H](O)[C@H](O)[C@@H]1O` [Compound 2, Methyl 6-O-cinnamoyl-α-D-mannopyranoside], for which the “Diameter of Inhibition Zone” value in data set [2] was 12.41 ± 0.3 mm; in data set [4], 11.75 ± 0.3 mm; in data set [5], 07.11 ± 0.5 mm. The “death rate (brine shrimp)” value in data set [7] stood at 27.07%.

Regarding `CCCCCCC(=O)O[C@@H]1[C@H](OC(=O)CCCCCC)[C@@H](OC)O[C@H](COC(=O)C=Cc2ccccc2)[C@H]1OC(=O)CCCCCC` [Compound 3, Methyl 2,3,4-tri-O-heptanoyl-6-O-cinnamoyl-α-D-mannopyranoside], the “Diameter of Inhibition Zone” value in data set [6] stood at 10.25 ± 0.2 mm.

Consider `CCCCCCCC(=O)O[C@@H]1[C@H](OC(=O)CCCCCCC)[C@@H](OC)O[C@H](COC(=O)C=Cc2ccccc2)[C@H]1OC(=O)CCCCCCC` [Compound 4, Methyl 6-O-cinnamoyl-2,3,4-tri-O-octanoyl-α-D-mannopyranoside], for which the “Diameter of Inhibition Zone” value amounted to 09.19 ± 0.6 mm in data set [1], 10.23 ± 0.5 mm in data set [2], 10.51 ± 0.6 mm in data set [3] and 11.53 ± 0.2 mm in [6]. In addition, the “% Inhibition of Fungal Mycelial Growth in mm (20 μg/μL)” value (shortened to “% Inhibition of Fungal Mycelial Growth”) in data set [8] is “* 98.47 ± 1.0%”; in [9] it was “* 96.22 ± 1.1%”. In data set [7], the “death rate (brine shrimp)” value is listed as 36.10-37.03%.

Consider `CO[C@H]1O[C@H](COC(=O)/C=C/c2ccccc2)[C@@H](OS(=O)(=O)c2ccc(C)cc2)[C@H](OS(=O)(=O)c2ccc(C)cc2)[C@@H]1OS(=O)(=O)c1ccc(C)cc1` [Compound 5, Methyl 2,3,4-tri-O-p-toluenesulfonyl-6-O-cinnamoyl-α-D-mannopyranoside], for which the “Diameter of Inhibition Zone” value is on record as 12.36 ± 0.2 mm in [1], 12.15 ± 0.7 mm in data set [3], 08.10 ± 0.3 mm in data set [5] and 9.00 ± 0.2 mm in data set [6]. In addition, the “% Inhibition of Fungal Mycelial Growth” value is reported as “* 81.30 ± 1.0%” in [8] and 57.62 ± 1.1% in data set [9].

Take `CO[C@H]1O[C@H](COC(=O)C=Cc2ccccc2)[C@@H](OS(=O)(=O)c2ccccc2)[C@H](OS(=O)(=O)c2ccccc2)[C@@H]1OS(=O)(=O)c1ccccc1` [Compound 6, Methyl 6-O-cinnamoyl-2,3,4-tri-O-benzenesulfonyl-α-D-mannopyranoside]: the “Diameter of Inhibition Zone” value in [1] is 8.50 ± 0.2 mm; in data set [2], 9.17 ± 0.1 mm; in [3], 10.13 ± 0.8 mm; in data set [6], 9.00 ± 0.3 mm. Moreover, in [7], the “death rate (brine shrimp)” value is recorded as 36.10-37.03%.

Take `C[C@@H]1[C@H](O)[C@@H](C)/C=C/C=C/CC/C=C/C=C/C=C/C=C/C(O[C@H]2O[C@H](C)[C@@H](O)[C@H](N)[C@@H]2O)CC2O[C@](O)(CC(O)C(O)CCC(O)CC(O)CC(O)CC(=O)O[C@H]1C)CC(O)C2C(=O)O` (stereo partly shown) [Nystatin, nystatin, reference compound]: the “% Inhibition of Fungal Mycelial Growth” value is “** 64.1 ± 1.0%” in data set [8] and “** 65.4 ± 1.0%” in data set [9].
